Structures can show the parent of a compound that is named as a salt.
Target: T1, m-calpain (Rattus norvegicus, UniProt Q07009)
T1 construct: m-calpain was purified from rat brain; from tissue; host or cells: rat brain
T1 sequence (Q07009 20-700 limits assumed): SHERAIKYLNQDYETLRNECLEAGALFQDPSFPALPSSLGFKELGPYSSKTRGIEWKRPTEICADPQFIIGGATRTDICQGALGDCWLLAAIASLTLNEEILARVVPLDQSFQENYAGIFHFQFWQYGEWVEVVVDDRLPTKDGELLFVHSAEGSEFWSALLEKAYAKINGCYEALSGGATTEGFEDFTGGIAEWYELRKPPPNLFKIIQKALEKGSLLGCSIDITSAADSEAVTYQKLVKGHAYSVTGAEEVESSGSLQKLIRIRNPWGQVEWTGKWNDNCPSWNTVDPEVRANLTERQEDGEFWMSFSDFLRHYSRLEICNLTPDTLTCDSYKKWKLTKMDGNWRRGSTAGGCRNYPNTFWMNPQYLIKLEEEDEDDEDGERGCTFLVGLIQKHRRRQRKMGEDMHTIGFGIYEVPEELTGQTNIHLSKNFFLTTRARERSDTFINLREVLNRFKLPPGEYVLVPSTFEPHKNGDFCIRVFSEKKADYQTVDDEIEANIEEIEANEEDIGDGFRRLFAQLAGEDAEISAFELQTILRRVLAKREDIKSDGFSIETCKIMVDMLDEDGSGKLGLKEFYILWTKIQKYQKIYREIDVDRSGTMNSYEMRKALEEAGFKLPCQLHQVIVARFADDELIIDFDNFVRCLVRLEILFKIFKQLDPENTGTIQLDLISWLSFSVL
T1 sequence (Q64537 1-270 partner): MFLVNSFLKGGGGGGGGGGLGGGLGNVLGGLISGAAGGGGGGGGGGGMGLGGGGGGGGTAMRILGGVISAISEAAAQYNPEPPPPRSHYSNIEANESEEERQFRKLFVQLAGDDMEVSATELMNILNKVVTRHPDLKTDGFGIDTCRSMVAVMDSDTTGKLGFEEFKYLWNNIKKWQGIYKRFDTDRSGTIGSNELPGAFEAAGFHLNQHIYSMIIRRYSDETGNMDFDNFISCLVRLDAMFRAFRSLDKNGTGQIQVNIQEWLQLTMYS
Test: Thiol protease inhibitory activity against m-calpain purified from rat brain
Type: biochemical
Conditions: not given
Experimental: Inhibitory activity against papain (P-3125, Sigma) and cathepsin B (C-6286, Sigma) was assayed according to the method described in a literature [Biochemical Journal, 201, 189 (1982)]. Capthesin L was purified from rat kidney according to the method in a literature [Journal of Biochemistry, 100, 35 (1986)], and the inhibitory activity against it was assayed in the same manner as described in the above literature for cathepsin B. Further, m-calpain was purified from rat brain according to a known method [Journal of Biological Chemistry, 254, p.3210 (1984)] and the inhibitory activity against it was assayed by a method described in a literature [Journal of Biological Chemistry, 259, 12489 (1984)]. The results are showing in Tables 3 and 4. It is evident from Tables 3 and 4 that the compounds in the present invention have a potent inhibitory activity against thiol proteases such as papain, cathepsin B, cathepsin L, m-calpain or the like.

SMILES	IC50 [µM]
CC(C)C[C@H](NC(=O)Oc1ccccc1)C(=O)N[C@@H](C(C)C)[C@@H](O)c1c(-c2ccccc2)c1=O [33 (No. 102), 2-[(1S, 2S)-1-hydroxy-3-methyl-2-((S)-4-methyl-2-phenoxycarbonylamino)valerylamino]-3-phenylcyclopropenone]	0.84

Same assay, conditions: Table 4; rat brain enzyme; read-out: Inhibitory activity against m-calpain IC50

SMILES	IC50 [µM]
CC(C)C[C@H](NS(=O)(=O)c1ccc(F)cc1)C(=O)N[C@@H](C(C)C)[C@@H](O)c1c(-c2ccccc2)c1=O [83 (No. 245), 2-[(1S, 2S)-2-{(S)-2-(4-fluorophenylsulfonylamino)-4-methylvalerylamino}-1-hydroxy-3-methylbutyl]-3-phenylcyclopropenone]	3
CC(C)CCC(=O)N[C@@H](CC(C)C)C(=O)N[C@@H](C(C)C)[C@@H](O)c1c(-c2ccccc2)c1=O [37 (No. 114), 2-[(1S, 2S)-1-hydroxy-2-((S)-2-isohexanoylamino-4-methylvalerylamino)-3-methylbutyl]-3-phenylcyclopropenone]	2.1
Cc1ccc(S(=O)(=O)N[C@@H](CC(C)C)C(=O)N[C@@H](C(C)C)[C@@H](O)c2c(-c3ccccc3)c2=O)cc1 [86 (No. 251), 2-[(1S, 2S)-1-hydroxy-3-methyl-2-{(S)-4-methyl-2-(4-trisulfonylamino)valerylamino}butyl]-3-phenylcyclopropenone]	0.75
CC(C)C[C@H](NC(=O)OCC1CCCCC1)C(=O)N[C@@H](CC(C)C)C(=O)N[C@@H](C(C)C)[C@@H](O)c1c(-c2ccccc2)c1=O [118 (No. 467), 2-[(1S, 2S)-2-{(S)-2-((S)-2-cyclohexylmethoxycarbonylamino-4-methylvalerylamino)-4-methylvalerylamino}-1-hydroxy-3-methylbutyl]-3-phenylcyclopropenone]	0.84
CC(C)C[C@H](NS(=O)(=O)c1ccccc1)C(=O)N[C@@H](C(C)C)[C@@H](O)c1c(-c2ccc(F)cc2)c1=O [111 (No. 317), 2-(4-fluorophenyl)-3-[(1S, 2S)-1-hydroxy-3-methyl-2-((S)-4-methyl-2-phenylsulfonylaminovalerylamino)butyl]cyclopropenone]	2.9
CC(C)C[C@H](NC(=O)c1ccco1)C(=O)N[C@@H](C(C)C)[C@@H](O)c1c(-c2ccccc2)c1=O [67 (No. 197), 2-[(1S, 2S)-2-{(S)-2-(2-furoylamino)-4-methylvalerylamino}-1-hydroxy-3-methylbutyl]-3-phenylcyclopropenone]	0.88
COc1ccc(S(=O)(=O)N[C@@H](CC(C)C)C(=O)N[C@@H](C(C)C)[C@@H](O)c2c(-c3ccccc3)c2=O)cc1 [87 (No. 257), 2-[(1S, 2S)-1-hydroxy-2-{(S)-2-(4-methoxyphenylsulfonylamino)-4-methylvalerylamino}-3-methylbutyl]-3-phenylcyclopropenone]	1
CC(C)C[C@H](NC(=O)c1cccs1)C(=O)N[C@@H](C(C)C)[C@@H](O)c1c(-c2ccccc2)c1=O [68 (No. 200), 2-[(1S, 2S)-1-hydroxy-3-methyl-2-{(S)-4-methyl-2-(2-thenoylamino)valerylamino}butyl]-3-phenylcyclopropenone]	3.1
CC(=O)CCC(=O)N[C@@H](CC(C)C)C(=O)N[C@@H](C(C)C)[C@@H](O)c1c(-c2ccccc2)c1=O [44 (No. 137), 2-[(1S, 2S)-1-hydroxy-3-methyl-2-(S)-4-methyl-2-(4-oxovalerylamino)valerylamino]-3-phenylcyclopropenone]	3
CCCS(=O)(=O)N[C@@H](CC(C)C)C(=O)N[C@@H](C(C)C)[C@@H](O)c1c(-c2ccccc2)c1=O [77 (No. 232), 2-[(1S, 2S)-1-hydroxy-3-methyl-2-((S)-4-methyl-2-propylsulfonylaminovalerylamino)butyl]-3-phenylcyclopropenone]	0.95
CC(C)C[C@H](NC(=O)OCc1ccncc1)C(=O)N[C@@H](C(C)C)[C@H](O)c1c(-c2ccccc2)c1=O [32 (No. 99), 2-[(1R, 2S)-1-hydroxy-3-methyl-2-{(S)-4-methyl-2-(4-pyridylmethoxycarbonylamino)valerylamino}butyl]-3-phenylcyclopropenone hydrochloride]	1.2

Continued, values first:

IC50 [µM]	SMILES
1.2	CC(C)C[C@H](NC(=O)COc1ccccc1Cl)C(=O)N[C@@H](C(C)C)[C@@H](O)c1c(-c2ccccc2)c1=O [50 (No. 152), 2-[(1S, 2S)-2-{(S)-2-(2-chlorophenoxyacetylamino)-4-methylvalerylamino}-1-hydroxy-3-methylbutyl]-3-phenylcyclopropenone]
1.5	CC(C)C[C@H](NC(=O)CCc1ccccc1)C(=O)N[C@@H](C(C)C)[C@@H](O)c1c(-c2ccccc2)c1=O [42 (No. 133), 2-[(1S, 2S)-1-hydroxy-3-methyl-2-{(S)-4-methyl-2-(3-phenylpropionylamino)valerylamino}butyl]-3-phenylcyclopropenone]
0.35	CC(C)C[C@H](NS(=O)(=O)c1ccccc1)C(=O)N[C@@H](C(C)C)[C@@H](O)c1c(-c2ccccc2)c1=O [80 (No. 239), 2-[(1S, 2S)-1-hydroxy-3-methyl-2-((S)-4-methyl-2-phenylsulfonylaminovalerylamino)butyl]-3-phenylcyclopropenone]
1	CC(C)C[C@H](NC(=O)CCC(=O)c1ccccc1)C(=O)N[C@@H](C(C)C)[C@@H](O)c1c(-c2ccccc2)c1=O [45 (No. 140), 2-[(1S, 2S)-2-{(S)-2-(3-benzoylpropionylamino)-4-methylvalerylamino}-1-hydroxy-3-methylbutyl]-3-phenylcyclopropenone]
0.63	CC(C)C[C@H](NC(=O)COc1ccccc1)C(=O)N[C@@H](C(C)C)[C@@H](O)c1c(-c2ccccc2)c1=O [48 (No. 148), 2-[(1S, 2S)-1-hydroxy-3-methyl-2-((S)-4-methyl-2-phenoxyacetylaminovalerylamino)butyl]-3-phenylcyclopropenone]
0.74	CC(C)C[C@H](NC(=O)COc1cccc(Cl)c1Cl)C(=O)N[C@@H](C(C)C)[C@@H](O)c1c(-c2ccccc2)c1=O [52 (No. 155), 2-[(1S, 2S)-2-{(S)-2-(2,3-dichlorophenoxyacetylamino)-4-methylvalerylamino}-1-hydroxy-3-methylbutyl]-3-phenylcyclopropenone]
1.4	CC(C)C[C@H](NC(=O)Cc1ccccc1)C(=O)N[C@@H](C(C)C)[C@@H](O)c1c(-c2ccccc2)c1=O [41 (No. 132), 2-[(1S, 2S)-1-hydroxy-3-methyl-2-((S)-4-methyl-2-phenylacetylaminovalerylamino)butyl]-3-phenylcyclopropenone]
1.7	CC(C)C[C@H](NC(=O)CCCc1ccccc1)C(=O)N[C@@H](C(C)C)[C@@H](O)c1c(-c2ccccc2)c1=O [43 (No. 134), 2-[(1S, 2S)-1-hydroxy-3-methyl-2-{(S)-4-methyl-2-(4-phenylbutyrylamino)valerylamino}butyl]-3-phenylcyclopropenone]

Reference: patent US5328909A, “Cyclopropenone derivatives” (Mitsubishi Kasei Corporation, priority 1991, dated 1994)
